# Source: patent publication US7322965B2, “Infection-resistant medical devices” (priority 2002, dated 2008)
# Like-named read-outs stand apart in the source and are kept apart here. Marks after values point to notes of the source that are not given here.
# Tests used:
# Assay type in all cases: cell-based
# S. epidermidis RP62A = experiment: Microtiter-plate adherence assay on polystyrene; settings: 18 h; for Adherence Mean OD550: S. epidermidis RP62A
# Protocol: (§1) Briefly, the inoculum was established by the direct colony suspension method using the Prompt™ Inoculation System (Becton Dickinson, Sparks, Md.). The bacteria suspension, which was equal to the turbidity of a 0.5 McFarland standard, was diluted in TSB to a concentration of 1×10^6 colony forming units per ml (CFU/mL). One hundred microliters of the cell suspension was added to flat-bottom polystyrene wells (Corning Costar, Corning, N.Y.) containing 100 μl of TSB, with and without drug. The final inoculum concentration per well was approximately 5×10^5 CFU/mL. The plates were incubated at 37° C. under static conditions in air. At 18 hours (h) post-infection, the optical density of bacterial growth was measured at a wavelength of 595 nm in a microtiter plate reader (Vmax; Molecular Devices, Sunnyvale, Calif.). […] Adherent “sessile” cells then were fixed with 3.7% (v/v) formaldehyde/2% (w/v) sodium acetate and stained with 0.1% (w/v) crystal violet. Excess stain was rinsed off with deionized water and the plates were air-dried for 4 h. The optical density of bacterial adherence was determined at a wavelength of 550 nm. […] To compensate for background absorbance, optical density readings from wells treated with sterile medium, fixative and stain as described above were averaged and then subtracted from all test and control wells. Relative inhibition of adherence or growth was expressed by the following equation: (OD of control well−OD of treated well/OD of control well)×100, where OD is the mean optical density of six replicate wells from two separate experiments (three replicates per experiment). Control was defined as infected, drug-free cultures.
# (§2) The primary efficacy variable in this study was the measurement of adherent bacterial cells to polystyrene after 18 h of growth. To determine whether statistically significant differences existed between treatment groups (MIC, ½ MIC, and ¼ MIC) compared with the infected-nontreated controls, the Kruskal-Wallis one-way analysis of variance (ANOVA) was applied for each clinical strain. Statistical significance was defined as p-values ≦0.05. An asterisk (*) was placed by all test values less than or equal to the specified significance level.
# S. epidermidis UC-20207 [1] = experiment: Microtiter-plate adherence assay on polystyrene; settings: for Adherence Mean OD550: S. epidermidis UC-20207, 18 h
# Protocol: as §1, §2
# S. epidermidis UC-20207 [2] = experiment: Time course adherence assay (prophylactic and delayed treatment); settings: for inhibition at 1 µg/mL / inhibition at 2 µg/mL / inhibition at 4 µg/mL / inhibition at 8 µg/mL: Staphylococcus epidermidis, read-out: Percent inhibition of bacterial adherence relative to controls; for Mean OD550: UC-20207
# Protocol: (§3) Drug effects on bacterial adherence were measured 18 hours after treatment initiation using a quantitative spectrophotometric assay.
# (§4) Relative inhibition of adherence was expressed by the following equation: (OD of control well−OD of treated well/OD of control well)×100, where OD is the mean optical density of six replicate wells from two separate experiments (three replicates per experiment). Control was defined as infected, drug-free cultures.
# (§5) The primary efficacy variable in this study was the measurement of adherent bacteria to polystyrene surfaces after 18 hours to 24 hours of growth. To determine whether statistically significant differences existed between treatments (4×MIC, 2×MIC, MIC, and ½ MIC) compared with the infected-nontreated controls, multiple comparisons according to Dunnett's test (Montgomery, Design and Analysis of Experiments (1991)) were applied for each clinical strain. Differences were considered statistically significant when p<0.05.
# S. epidermidis UC-20208 = experiment: as above; settings: for inhibition at 1 µg/mL / inhibition at 2 µg/mL / inhibition at 4 µg/mL / inhibition at 8 µg/mL: Staphylococcus epidermidis, read-out: Percent inhibition of bacterial adherence relative to controls; for Mean OD550: UC-20208
# Protocol: as §3, §4, §5
# [3] = Staphylococcus epidermidis, RP62A, read-out: Adherence % Inhibition
# [4] = Staphylococcus epidermidis, UC20207, 18 h, read-out: Adherence % Inhibition
# [5] = 1.0 μg/ml, treatment 0 h post-infection
# [6] = 2.0 μg/ml (MIC), treatment 0 h post-infection
# [7] = 2.0 μg/ml (MIC), treatment 2 h post-infection
# [8] = 2.0 μg/ml (MIC), treatment 4 h post-infection
# [9] = 4.0 μg/ml, treatment 0 h post-infection
# [10] = 4.0 μg/ml, treatment 2 h post-infection
# [11] = 4.0 μg/ml, treatment 4 h post-infection
# [12] = 8.0 μg/ml, treatment 0 h post-infection
# [13] = 8.0 μg/ml, treatment 2 h post-infection
# [14] = 8.0 μg/ml, treatment 4 h post-infection
structure (smiles),measurement,setting,value
CN[C@H](CC(C)C)C(=O)N[C@H]1C(=O)N[C@@H](CC(N)=O)C(=O)N[C@H]2C(=O)N[C@H]3C(=O)N[C@H](C(=O)N[C@H](C(=O)O)c4cc(O)cc(O)c4-c4cc3ccc4O)[C@H](O)c3ccc(c(Cl)c3)Oc3cc2cc(c3O[C@@H]2O[C@H](CO)[C@@H](O)[C@H](O)[C@H]2O[C@H]2C[C@](C)(N)[C@H](O)[C@H](C)O2)Oc2ccc(cc2Cl)[C@H]1O [Vancomycin],Adherence Mean OD550,S. epidermidis RP62A; drug 1.0 μg/ml,1.728 ± 0.952
same,Adherence Mean OD550,S. epidermidis RP62A; drug 2.0 μg/ml (MIC),0.000 ± 0.002*
same,inhibition at 0.5 µg/mL,S. epidermidis RP62A; [3],0%
same,inhibition at 1 µg/mL,S. epidermidis RP62A; [3],36.6%
same,inhibition at 2 µg/mL,S. epidermidis RP62A; [3],100%
same,Adherence Mean OD550,S. epidermidis UC-20207 [1]; drug 0.5 μg/ml,2.177 ± 0.424
same,Adherence Mean OD550,S. epidermidis UC-20207 [1]; drug 2.0 μg/ml (MIC),0.001 ± 0.002*
same,inhibition at 0.5 µg/mL,S. epidermidis UC-20207 [1]; [4],0%
same,inhibition at 1 µg/mL,S. epidermidis UC-20207 [1]; [4],0%
same,inhibition at 2 µg/mL,S. epidermidis UC-20207 [1]; [4],100%
same,inhibition at 1 µg/mL,"S. epidermidis UC-20207 [2]; UC20207, 0 h",0%
same,inhibition at 2 µg/mL,"S. epidermidis UC-20207 [2]; UC20207, 0 h",99.8%
same,inhibition at 4 µg/mL,"S. epidermidis UC-20207 [2]; UC20207, 0 h",99.9%
same,inhibition at 8 µg/mL,"S. epidermidis UC-20207 [2]; UC20207, 0 h",99.9%
same,inhibition at 1 µg/mL,"S. epidermidis UC-20207 [2]; UC20207, 2 h",0%
same,inhibition at 2 µg/mL,"S. epidermidis UC-20207 [2]; UC20207, 2 h",99.4%
same,inhibition at 4 µg/mL,"S. epidermidis UC-20207 [2]; UC20207, 2 h",99.8%
same,inhibition at 8 µg/mL,"S. epidermidis UC-20207 [2]; UC20207, 2 h",99.7%
same,inhibition at 1 µg/mL,"S. epidermidis UC-20207 [2]; UC20207, 4 h",0%
same,inhibition at 2 µg/mL,"S. epidermidis UC-20207 [2]; UC20207, 4 h",3.6%
same,inhibition at 4 µg/mL,"S. epidermidis UC-20207 [2]; UC20207, 4 h",98.8%
same,inhibition at 8 µg/mL,"S. epidermidis UC-20207 [2]; UC20207, 4 h",99%
same,inhibition at 1 µg/mL,"S. epidermidis UC-20207 [2]; UC20207, 6 h",0%
same,inhibition at 2 µg/mL,"S. epidermidis UC-20207 [2]; UC20207, 6 h",0%
same,inhibition at 4 µg/mL,"S. epidermidis UC-20207 [2]; UC20207, 6 h",0%
same,inhibition at 8 µg/mL,"S. epidermidis UC-20207 [2]; UC20207, 6 h",88.5%
same,Mean OD550,S. epidermidis UC-20207 [2]; [5],2.389 ± 0.175
same,Mean OD550,S. epidermidis UC-20207 [2]; [6],0.005 ± 0.004
same,Mean OD550,S. epidermidis UC-20207 [2]; [7],0.014 ± 0.010
same,Mean OD550,S. epidermidis UC-20207 [2]; [8],2.693 ± 0.527
same,Mean OD550,S. epidermidis UC-20207 [2]; [9],0.003 ± 0.002
same,Mean OD550,S. epidermidis UC-20207 [2]; [10],0.006 ± 0.003
same,Mean OD550,S. epidermidis UC-20207 [2]; [11],0.033 ± 0.010
same,Mean OD550,S. epidermidis UC-20207 [2]; [12],0.003 ± 0.002
same,Mean OD550,S. epidermidis UC-20207 [2]; [13],0.007 ± 0.003
same,Mean OD550,S. epidermidis UC-20207 [2]; [14],0.028 ± 0.014
same,Mean OD550,"S. epidermidis UC-20207 [2]; 8.0 μg/ml, treatment 6 h post-infection",0.326 ± 0.046
same,inhibition at 1 µg/mL,"S. epidermidis UC-20208; UC20208, 0 h",0%
same,inhibition at 2 µg/mL,"S. epidermidis UC-20208; UC20208, 0 h",99.9%
same,inhibition at 4 µg/mL,"S. epidermidis UC-20208; UC20208, 0 h",99.9%
same,inhibition at 8 µg/mL,"S. epidermidis UC-20208; UC20208, 0 h",99.9%
same,inhibition at 1 µg/mL,"S. epidermidis UC-20208; UC20208, 2 h",0%
same,inhibition at 2 µg/mL,"S. epidermidis UC-20208; UC20208, 2 h",99.1%
same,inhibition at 4 µg/mL,"S. epidermidis UC-20208; UC20208, 2 h",100%
same,inhibition at 8 µg/mL,"S. epidermidis UC-20208; UC20208, 2 h",100%
same,inhibition at 1 µg/mL,"S. epidermidis UC-20208; UC20208, 4 h",0%
same,inhibition at 2 µg/mL,"S. epidermidis UC-20208; UC20208, 4 h",0%
same,inhibition at 4 µg/mL,"S. epidermidis UC-20208; UC20208, 4 h",85.1%
same,inhibition at 8 µg/mL,"S. epidermidis UC-20208; UC20208, 4 h",99.6%
same,inhibition at 1 µg/mL,"S. epidermidis UC-20208; UC20208, 6 h",0%
same,inhibition at 2 µg/mL,"S. epidermidis UC-20208; UC20208, 6 h",0%
same,inhibition at 4 µg/mL,"S. epidermidis UC-20208; UC20208, 6 h",0%
same,inhibition at 8 µg/mL,"S. epidermidis UC-20208; UC20208, 6 h",0%
same,Mean OD550,S. epidermidis UC-20208; [5],1.865 ± 0.309
same,Mean OD550,"S. epidermidis UC-20208; 1.0 μg/ml, treatment 2 h post-infection",1.865 ± 0.435
same,Mean OD550,"S. epidermidis UC-20208; 1.0 μg/ml, treatment 4 h post-infection",1.752 ± 0.566
same,Mean OD550,"S. epidermidis UC-20208; 1.0 μg/ml, treatment 6 h post-infection",1.127 ± 0.463
same,Mean OD550,S. epidermidis UC-20208; [6],0.001 ± 0.000
same,Mean OD550,S. epidermidis UC-20208; [7],0.014 ± 0.036
same,Mean OD550,S. epidermidis UC-20208; [8],2.414 ± 0.558
same,Mean OD550,"S. epidermidis UC-20208; 2.0 μg/ml (MIC), treatment 6 h post-infection",1.281 ± 0.555
same,Mean OD550,S. epidermidis UC-20208; [9],0.001 ± 0.001
same,Mean OD550,S. epidermidis UC-20208; [10],0.000 ± 0.001
same,Mean OD550,S. epidermidis UC-20208; [11],0.239 ± 0.261
same,Mean OD550,"S. epidermidis UC-20208; 4.0 μg/ml, treatment 6 h post-infection",1.555 ± 0.206
same,Mean OD550,S. epidermidis UC-20208; [12],0.001 ± 0.001
same,Mean OD550,S. epidermidis UC-20208; [13],0.000 ± 0.001
same,Mean OD550,S. epidermidis UC-20208; [14],0.006 ± 0.002
